Laboratory results published in patent US20250195511A1, “INDAZOLE DERIVATIVES USEFUL AS INHIBITORS OF NOD-LIKE RECEPTOR PROTEIN 3” (Merck Sharp & Dohme LLC, priority 2023, published 2025).

Test system: NLRP3 inflammasome
Test: NLRP3 inflammasome activation: ASC-SPECK formation in gramicidin-stimulated THP-1 cells
Format: cell-based
Conditions: Homo sapiens, THP-1, inhibition of ASC SPECK formation; PMA-treated human monocytic THP-1 cells, compound 1 h before 12.5 μg/ml gramicidin, 3-hour treatment
Outline: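 Undifferentiated human THP-1 cells primed overnight with 10 ng/ml PMA, then given compounds 1 h before 12.5 μg/ml gramicidin for 3 h at 37° C in RPMI with 0.01% BSA. Fixed cells immunostained for ASC with DRAQ5 nuclear counterstain; DRAQ5-positive cells with ASC specks counted by high-content imaging; EC50 from curve fitting.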

Compound	EC50
Cc1cc(C(F)(F)F)cc(O)c1-c1cnc2cn([C@H]3[C@@H]4COC[C@@H]43)nc2n1 [Example 10, 2-(2-((1R,5S,6R)-3-oxabicyclo[3.1.0]hexan-6-yl)-2H-pyrazolo[3,4-b]pyrazin-6-yl)-3-methyl-5-(trifluoromethyl)phenol]	34 nM
Cc1cc(C(F)(F)F)cc(O)c1-c1cnc2cn([C@H]3CC[C@@H](C#N)CC3)nc2n1 [Example 11, (1S,4S)-4-(6-(2-hydroxy-6-methyl-4-(trifluoromethyl)phenyl)-2H-pyrazolo[3,4-b]pyrazin-2-yl)cyclohexane-1-carbonitrile]	1500 nM
Cc1cc(C(F)(F)F)cc(O)c1-c1cnc2cn(CC(C)(C)C#N)nc2n1 [Example 12, 3-(6-(2-hydroxy-6-methyl-4-(trifluoromethyl)phenyl)-2H-pyrazolo[3,4-b]pyrazin-2-yl)-2,2-dimethylpropanenitrile]	658 nM
Cc1cc(C(F)(F)F)cc(O)c1-c1cnc2cn(CC3(C#N)CCC3)nc2n1 [Example 13, 1-((6-(2-hydroxy-6-methyl-4-(trifluoromethyl)phenyl)-2H-pyrazolo[3,4-b]pyrazin-2-yl)methyl)cyclobutane-1-carbonitrile]	264 nM
Cc1cc(C(F)(F)F)cc(O)c1-c1cnc2cn(C34COCC(C3)C4)nc2n1 [Example 14, 2-(2-(3-oxabicyclo[3.1.1]heptan-1-yl)-2H-pyrazolo[3,4-b]pyrazin-6-yl)-3-methyl-5-(trifluoromethyl)phenol]	154 nM
Cc1cc(C(F)(F)F)cc(O)c1-c1cnc2cn([C@H]3C[C@H](F)C3)nc2n1 [Example 16, 2-(2-((1R,3R)-3-fluorocyclobutyl)-2H-pyrazolo[3,4-b]pyrazin-6-yl)-3-methyl-5-(trifluoromethyl)phenol]	25 nM
Cc1cc(C(F)(F)F)cc(O)c1-c1cnc2cn([C@H]3C[C@@H](CC#N)C3)nc2n1 [Example 18, 2-((1s,3s)-3-(6-(2-hydroxy-6-methyl-4-(trifluoromethyl)phenyl)-2H-pyrazolo[3,4-b]pyrazin-2-yl)cyclobutyl)acetonitrile]	465 nM
Cc1cc(C(F)(F)F)cc(O)c1-c1cnc2cn([C@]3(C)CCS(=O)(=O)C3)nc2n1 [Example 29, 3-methyl-2-[2-[(3R)-3-methyl-1,1-dioxo-thiolan-3-yl]pyrazolo[3,4-b]pyrazin-6-yl]-5-(trifluoromethyl)phenol]	232 nM
Cc1cc(C(F)(F)F)cc(O)c1-c1cnc2cn([C@@H]3CCS(=O)(=O)C3)nc2n1 [Example 30, 2-[2-[(3R)-1,1-dioxothiolan-3-yl]pyrazolo[3,4-b]pyrazin-6-yl]-3-methyl-5-(trifluoromethyl)phenol]	407 nM
Cc1cc(C(F)(F)F)cc(O)c1-c1cnc2cn([C@H]3CCS(=O)(=O)C3)nc2n1 [Example 31, 2-[2-[(3S)-1,1-dioxothiolan-3-yl]pyrazolo[3,4-b]pyrazin-6-yl]-3-methyl-5-(trifluoromethyl)phenol]	265 nM
Cc1cc(C(F)(F)F)cc(O)c1-c1cnc2cn([C@H]3COC[C@@H]3O)nc2n1 [Example 32, (3R,4S)-4-[6-[2-hydroxy-6-methyl-4-(trifluoromethyl)phenyl]pyrazolo[3,4-b]pyrazin-2-yl]tetrahydrofuran-3-ol]	34 nM
Cc1cc(C(F)(F)F)cc(O)c1-c1cnc2cn([C@@H]3COC[C@H]3O)nc2n1 [Example 33, (3S,4R)-4-[6-[2-hydroxy-6-methyl-4-(trifluoromethyl)phenyl]pyrazolo[3,4-b]pyrazin-2-yl]tetrahydrofuran-3-ol]	71 nM
Cc1cc(C(F)(F)F)cc(O)c1-c1cnc2cn([C@@H]3COCC[C@H]3O)nc2n1 [Example 34, (3R,4R)-3-[6-[2-hydroxy-6-methyl-4-(trifluoromethyl)phenyl]pyrazolo[3,4-b]pyrazin-2-yl]tetrahydropyran-4-ol]	44 nM
Cc1cc(C(F)(F)F)cc(O)c1-c1cnc2cn([C@H]3COCC[C@@H]3O)nc2n1 [Example 35, (3S,4S)-3-[6-[2-hydroxy-6-methyl-4-(trifluoromethyl)phenyl]pyrazolo[3,4-b]pyrazin-2-yl]tetrahydropyran-4-ol]	37 nM
Cc1cc(C(F)(F)F)cc(O)c1-c1cnc2cn([C@H]3C[C@H](C#N)C3)nc2n1 [Example 36, (1R,3R)-3-(6-(2-hydroxy-6-methyl-4-(trifluoromethyl)phenyl)-2H-pyrazolo[3,4-b]pyrazin-2-yl)cyclobutane-1-carbonitrile]	18 nM
Cc1cc(C(F)(F)F)cc(O)c1-c1cnc2cn([C@H]3CC[C@H](C#N)CC3)nc2n1 [Example 40, (1R,4R)-4-(6-(2-hydroxy-6-methyl-4-(trifluoromethyl)phenyl)-2H-pyrazolo[3,4-b]pyrazin-2-yl)cyclohexane-1-carbonitrile]	81 nM
Cc1cc(C(F)(F)F)cc(O)c1-c1cnc2cn(C34CCC(C3)C4)nc2n1 [Example 42, 2-[2-(1-bicyclo[2.1.1]hexanyl)pyrazolo[3,4-b]pyrazin-6-yl]-3-methyl-5-(trifluoromethyl)phenol]	70 nM
Cc1cc(C(F)(F)F)cc(O)c1-c1cnc2cn([C@H]3CC[C@@H](O)CC3)nc2n1 [Example 44, 2-(2-((1S,4S)-4-hydroxycyclohexyl)-2H-pyrazolo[3,4-b]pyrazin-6-yl)-3-methyl-5-(trifluoromethyl)phenol]	121 nM
Cc1cc(C(F)(F)F)cc(O)c1-c1cnc2cn(C3CC4CCC(C3)O4)nc2n1 (stereo not shown) [Example 45, 3-methyl-2-[2-(8-oxabicyclo[3.2.1]octan-3-yl)pyrazolo[3,4-b]pyrazin-6-yl]-5-(trifluoromethyl)phenol]	70 nM
Cc1cc(C(F)(F)F)cc(O)c1-c1cnc2cn([C@H]3C[C@H](Cl)C3)nc2n1 [Example 49, 2-(2-((1R,3R)-3-chlorocyclobutyl)-2H-pyrazolo[3,4-b]pyrazin-6-yl)-3-methyl-5-(trifluoromethyl)phenol]	31 nM
Cc1cc(C(F)(F)F)cc(O)c1-c1cnc2cn([C@@H]3C[C@H]3C)nc2n1 [Example 50, 3-methyl-2-[2-[(1R,2R)-2-methylcyclopropyl]pyrazolo[3,4-b]pyrazin-6-yl]-5-(trifluoromethyl)phenol]	103 nM

More lines, now with the values ahead:

EC50	Compound
84 nM	Cc1cc(C(F)(F)F)cc(O)c1-c1cnc2cn(C34CCOC(C)(C3)C4)nc2n1 [Example 15, 3-methyl-2-(2-(1-methyl-2-oxabicyclo[3.1.1]heptan-5-yl)-2H-pyrazolo[3,4-b]pyrazin-6-yl)-5-(trifluoromethyl)phenol]
55 nM	Cc1cc(C(F)(F)F)cc(O)c1-c1cnc2cn(C34COC(C3)C4)nc2n1 [Example 17, 2-(2-(2-oxabicyclo[2.1.1]hexan-4-yl)-2H-pyrazolo[3,4-b]pyrazin-6-yl)-3-methyl-5-(trifluoromethyl)phenol]
51 nM	Cc1cc(C(F)(F)F)cc(O)c1-c1cnc2cn(C34CCC(O)(C3)C4)nc2n1 [Example 26, 4-[6-[2-hydroxy-6-methyl-4-(trifluoromethyl)phenyl]pyrazolo[3,4-b]pyrazin-2-yl]bicyclo[2.1.1]hexan-1-ol]
193 nM	Cc1cc(C(F)(F)F)cc(O)c1-c1cnc2cn(C34COC(C)(C3)C4)nc2n1 [Example 27, 3-methyl-2-[2-(1-methyl-2-oxabicyclo[2.1.1]hexan-4-yl)pyrazolo[3,4-b]pyrazin-6-yl]-5-(trifluoromethyl)phenol]
55 nM	Cc1cc(C(F)(F)F)cc(O)c1-c1cnc2cn(C34CCC(O)(CC3)C4)nc2n1 [Example 28, 4-[6-[2-hydroxy-6-methyl-4-(trifluoromethyl)phenyl]pyrazolo[3,4-b]pyrazin-2-yl]norboman-1-ol]
220 nM	COCC12CC(n3cc4ncc(-c5c(C)cc(C(F)(F)F)cc5O)nc4n3)(C1)C2 [Example 37, 2-[2-[3-(methoxymethyl)-1-bicyclo[1.1.1]pentanyl]pyrazolo[3,4-b]pyrazin-6-yl]-3-methyl-5-(trifluoromethyl)phenol]
141 nM	COC12CC(n3cc4ncc(-c5c(C)cc(C(F)(F)F)cc5O)nc4n3)(C1)C2 [Example 38, 2-[2-(3-methoxy-1-bicyclo[1.1.1]pentanyl)pyrazolo[3,4-b]pyrazin-6-yl]-3-methyl-5-(trifluoromethyl)phenol]
90 nM	Cc1cc(C(F)(F)F)cc(O)c1-c1cnc2cn(C34CC(C(F)F)(C3)C4)nc2n1 [Example 39, 2-[2-[3-(difluoromethyl)-1-bicyclo[1.1.1]pentanyl]pyrazolo[3,4-b]pyrazin-6-yl]-3-methyl-5-(trifluoromethyl)phenol]
78 nM	Cc1cc(C(F)(F)F)cc(O)c1-c1cnc2cn(C34COC(CO)(C3)C4)nc2n1 [Example 41, 2-[2-[1-(hydroxymethyl)-2-oxabicyclo[2.1.1]hexan-4-yl]pyrazolo[3,4-b]pyrazin-6-yl]-3-methyl-5-(trifluoromethyl)phenol]
26 nM	Cc1cc(C(F)(F)F)cc(O)c1-c1cnc2cn(C34CC(CO)(C3)C4)nc2n1 [Example 43, 2-[2-[3-(hydroxymethyl)-1-bicyclo[1.1.1]pentanyl]pyrazolo[3,4-b]pyrazin-6-yl]-3-methyl-5-(trifluoromethyl)phenol]
213 nM	Cc1cc(C(F)(F)F)cc(O)c1-c1cnc2cn(C34CC(CC#N)(C3)C4)nc2n1 [Example 46, 2-[3-[6-[2-hydroxy-6-methyl-4-(trifluoromethyl)phenyl]pyrazolo[3,4-b]pyrazin-2-yl]-1-bicyclo[1.1.1]pentanyl]acetonitrile]
61 nM	Cc1cc(C(F)(F)F)cc(O)c1-c1cnc2cn(C34CCC(C#N)(C3)C4)nc2n1 [Example 47, 4-[6-[2-hydroxy-6-methyl-4-(trifluoromethyl)phenyl]pyrazolo[3,4-b]pyrazin-2-yl]bicyclo[2.1.1]hexane-1-carbonitrile]
65 nM	Cc1cc(C(F)(F)F)cc(O)c1-c1cnc2cn(C34CC(F)(C3)C4)nc2n1 [Example 48, 2-[2-(3-fluoro-1-bicyclo[1.1.1]pentanyl)pyrazolo[3,4-b]pyrazin-6-yl]-3-methyl-5-(trifluoromethyl)phenol]
